Test system: selected panel of PTPs (mPTPB, SHP2, PTP1B, CD45, LYP, FAP-1)
Assay: PTP activity assay, selected panel of PTPs
Type: biochemical
Settings: pH 7, 25 °C

SMILES	PTP inhibitory activity (in words)
O=C(COc1ccc2cc(C(O)(C(F)(F)F)C(F)(F)F)c(O)cc2c1)NCCc1ccc(Cl)cc1Cl [7h]	moderate activities
O=C(COc1ccc2cc(C(O)(C(F)(F)F)C(F)(F)F)c(O)cc2c1)NC12CC3CC(CC(C3)C1)C2 [7d]	moderate activities
OC(c1ccccc1)(C(F)(F)F)C(F)(F)F [1a]	No appreciable activity
O=C(COc1ccc2cc(C(O)(C(F)(F)F)C(F)(F)F)c(O)cc2c1)N1c2ccccc2Sc2ccccc21 [7p]	very high activity
O=C(COc1ccc2cc(C(O)(C(F)(F)F)C(F)(F)F)c(O)cc2c1)NC1c2ccccc2-c2ccccc21 [7i]	moderate activities
Cc1ccc(O)c(C(O)(C(F)(F)F)C(F)(F)F)c1 [1b]	moderate activity
Oc1cc2ccccc2cc1C(O)(C(F)(F)F)C(F)(F)F [1f]	the most potent one

Reference: publication PMC4982551 (MedChemComm, 2016)
